Patent US20050203119A1, “Dihydropyridine compounds for treating or preventing metabolic disorders” (priority 2003, published 2005)

System: male db/db mice (BKS.Cg-m+/+Lepr db/J)
Test: Oral glucose tolerance test (OGTT) in db/db mice (Example 122, FIG. 4)
Format: in vivo, mouse
Details: orally dosed
Procedure: To determine the effect of a test compound on blood glucose levels in diabetic mice, intraperitoneal and/or oral glucose tolerance tests (IPGTT and OGTT, respectively) were conducted. Six to eight week old, male db/db mice (BKS.Cg-m+/+Lepr^db/J; stock number 000642), homozygous for a mutation in the gene encoding the leptin receptor, were purchased from The Jackson Laboratory (Bar Harbor, Me. USA). Animals were singly housed in conventional caging on a 12 hr/12 hr light/dark cycle, acclimated for at least five days prior to use and fed normal laboratory chow ad libitum between experiments. Studies were conducted with animals between seven and fourteen weeks of age. […]
To perform an IPGTT or OGTT, db/db mice were fasted overnight beginning on day 0 at −17.5 to −18.5 hrs relative to the glucose dose on day 1 (all time points below are stated relative to the time of an intraperitoneal or oral glucose dose on day 1). At −4.5 hrs, animals were weighed, blood was collected by tail vein lancing and fasted blood glucose levels determined using a hand-held glucometer (MediSense Precision Xtra or LifeScan OneTouch Ultra). […] Blood glucose levels were determined as above at −45 min and +45 min, and also +90 min and/or +150 min (see FIG. 3 and the Table in this section). Alternatively, blood glucose levels were determined at −30 min, +30 min, +60 min and +120 min (see FIGS. 4 and 5). […]

CCOC(=O)C1=C(COCCN)NC2=C(C(=O)CC(C)(C)C2)C1c1cccnc1 (stereo not shown) [Compound 39, 2-(2-Amino-ethoxymethyl)-7,7-dimethyl-5-oxo-4-pyridin-3-yl-1,4,5,6,7,8-hexahydro-quinoline-3-carboxylic acid ethyl ester]
glucose intolerance relative to vehicle-treated animals (FIG. 4): decreased
